How the values were obtained:
[1] = biological target: T1, Adenosine receptor A1 (Homo sapiens, UniProt P30542); test: Displacement of [3H]DPCPX from human adenosine A1 receptor membrane (unknown origin) measured after 60 mins by scintillation counting analysis; assay type: cell membranes
T1 sequence (P30542 whole entry): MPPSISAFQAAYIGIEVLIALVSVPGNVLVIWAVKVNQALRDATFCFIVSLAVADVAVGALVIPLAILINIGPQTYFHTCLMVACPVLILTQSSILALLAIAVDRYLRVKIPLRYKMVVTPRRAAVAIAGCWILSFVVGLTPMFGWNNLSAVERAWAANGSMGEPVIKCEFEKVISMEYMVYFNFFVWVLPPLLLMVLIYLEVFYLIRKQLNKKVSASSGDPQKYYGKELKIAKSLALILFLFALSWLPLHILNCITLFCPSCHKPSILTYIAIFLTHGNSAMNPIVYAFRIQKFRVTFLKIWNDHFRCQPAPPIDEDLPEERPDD

[2] = biological target: T2, Histone deacetylase 11 (Homo sapiens, UniProt Q96DB2); test: Inhibition of HDAC11 (unknown origin) assessed as release of 7-amino-4-methylcoumarin incubated in room temperature for 15 min measured by Spectra max microtitre plate reader
T2 sequence (Q96DB2 whole entry): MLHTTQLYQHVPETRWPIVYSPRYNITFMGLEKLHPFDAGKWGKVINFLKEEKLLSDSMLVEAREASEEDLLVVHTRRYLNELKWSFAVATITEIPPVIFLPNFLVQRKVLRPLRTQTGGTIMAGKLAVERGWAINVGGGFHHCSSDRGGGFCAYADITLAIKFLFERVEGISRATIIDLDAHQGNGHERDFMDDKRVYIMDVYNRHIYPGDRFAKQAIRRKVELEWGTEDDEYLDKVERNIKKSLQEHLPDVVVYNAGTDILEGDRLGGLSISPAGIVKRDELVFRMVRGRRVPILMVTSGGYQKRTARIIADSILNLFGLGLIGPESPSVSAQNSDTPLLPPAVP

[3] = biological target: Histone deacetylase 2 (Homo sapiens, UniProt Q92769); test: Inhibition of HDAC2 (unknown origin) assessed as release of 7-amino-4-methylcoumarin incubated in room temperature for 15 min measured by Spectra max microtitre plate reader
Sequence of Histone deacetylase 2 (Q92769 whole entry): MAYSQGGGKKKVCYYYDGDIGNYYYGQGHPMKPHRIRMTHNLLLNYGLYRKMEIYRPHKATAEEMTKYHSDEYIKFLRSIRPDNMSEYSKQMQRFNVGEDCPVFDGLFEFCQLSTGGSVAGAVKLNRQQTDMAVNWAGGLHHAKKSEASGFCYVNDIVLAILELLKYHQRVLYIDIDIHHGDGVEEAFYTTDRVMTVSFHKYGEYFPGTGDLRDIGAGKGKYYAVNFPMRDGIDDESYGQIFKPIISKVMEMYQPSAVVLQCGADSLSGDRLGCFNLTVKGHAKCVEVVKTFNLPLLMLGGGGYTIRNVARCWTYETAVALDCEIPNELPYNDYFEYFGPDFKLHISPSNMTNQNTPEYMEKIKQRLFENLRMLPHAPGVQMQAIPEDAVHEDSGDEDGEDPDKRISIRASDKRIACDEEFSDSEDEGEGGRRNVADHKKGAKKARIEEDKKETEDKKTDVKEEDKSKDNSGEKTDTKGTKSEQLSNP

[4] = Clearance in ICR mouse at 5 mg/kg, iv up to 24 hrs by LC-MS/MS analysis; assay type: ADME, organism-based; settings: in vivo
[5] = biological target: T3, Polyamine deacetylase HDAC10 (Homo sapiens, UniProt Q969S8); test: Inhibition of HDAC10 (unknown origin) assessed as release of 7-amino-4-methylcoumarin incubated in room temperature for 15 min measured by Spectra max microtitre plate reader
T3 sequence (Q969S8 whole entry): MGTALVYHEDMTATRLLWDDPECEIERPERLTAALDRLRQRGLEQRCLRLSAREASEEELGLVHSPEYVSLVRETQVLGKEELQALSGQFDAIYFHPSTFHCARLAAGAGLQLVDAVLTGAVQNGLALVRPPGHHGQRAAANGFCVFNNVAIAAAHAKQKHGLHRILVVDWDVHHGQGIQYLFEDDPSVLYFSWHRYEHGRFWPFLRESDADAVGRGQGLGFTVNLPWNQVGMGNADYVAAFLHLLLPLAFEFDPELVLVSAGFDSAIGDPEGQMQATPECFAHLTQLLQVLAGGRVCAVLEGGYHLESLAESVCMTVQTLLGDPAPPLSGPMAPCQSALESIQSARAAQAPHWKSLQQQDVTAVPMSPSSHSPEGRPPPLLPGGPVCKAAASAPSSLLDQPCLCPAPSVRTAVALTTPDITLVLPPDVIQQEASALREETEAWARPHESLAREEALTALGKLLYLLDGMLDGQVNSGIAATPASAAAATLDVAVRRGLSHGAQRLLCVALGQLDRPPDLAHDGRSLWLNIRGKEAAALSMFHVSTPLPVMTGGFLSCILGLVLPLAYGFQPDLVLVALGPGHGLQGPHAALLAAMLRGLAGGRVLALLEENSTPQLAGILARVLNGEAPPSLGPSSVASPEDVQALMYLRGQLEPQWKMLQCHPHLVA

[6] = Bioavailability in ICR mouse at 20 mg/kg up to 24 hrs by LC-MS/MS analysis; assay type: ADME, organism-based; settings: in vivo

SMILES: Nc1ccccc1NC(=O)c1ccc(CCn2ncc3c2nc(N)n2nc(-c4ccco4)nc32)cc1
- Ki [1]: 71.2 nM
- IC50 [2]: > 10 µM
- IC50 [3]: 179 nM
- clearance [4]: 59 mL/min/kg
- IC50 [5]: 632 nM
- bioavailability [6]: 112%

From ChEMBL document CHEMBL5030563, “Structure-Based Design of Dual-Acting Compounds Targeting Adenosine A2A Receptor and Histone Deacetylase as Novel Tumor Immunotherapeutic Agents” (J Med Chem, 2021)
